{
  "source": "a melting point compilation (Tetko et al.; mined from patent text by program, amines drawn as free bases though some values may be those of a salt)",
  "data": [
    {"units": {"melting point": "°C"}, "values": [
      {"smiles": "CC(=O)OC1CSC(Oc2cccc3cc(C(C)=O)oc23)C(OC(C)=O)C1OC(C)=O", "note": "(centres undefined)", "melting point": "208 to 209"},
      {"smiles": "O=C1CCCCc2ccc(N3C[C@H](CO)OC3=O)cc21", "melting point": "144 to 146"},
      {"smiles": "CC(O)(C(=O)O)c1ccc(-c2ccccc2)c(F)c1", "note": "(centres undefined)", "melting point": "161 to 163"},
      {"smiles": "CN(C)C(=O)C1=Cc2cccc(OC[C@@H]3CO3)c2OC1", "melting point": "115 to 117"},
      {"smiles": "CC(=O)Oc1cc(S(=O)(=O)Oc2ccc(C(=O)c3c(Cc4ccc(Br)cc4)sc(C)c3C)cc2C2CCCC2)ccc1C(=O)O", "melting point": "113 to 114"},
      {"smiles": "COC1=Nc2c(C)ccnc2N(C2CC2)c2ncccc21", "melting point": "191 to 192"},
      {"smiles": "CC1(C)NC(=O)N(CSc2cc(C(C)(C)C)c(O)c(C(C)(C)C)c2)C1=O", "melting point": "160 to 162"},
      {"smiles": "C[C@H]1CN(c2ccc([N+](=O)[O-])cc2)[C@@H](C)CN1", "note": "(relative stereo)", "melting point": "93 to 94"},
      {"smiles": "CCCN(CCC)C1COc2cccc(C(=O)c3ccccc3F)c2C1", "note": "(centres undefined)", "melting point": "98.3 to 98.4"},
      {"smiles": "CCOC(=O)N1CCC23CCCCC12c1ccccc1CC3", "note": "(centres undefined)", "melting point": "67 to 69"},
      {"smiles": "C[C@]1(COc2ccc(N3CCC(N4CCN(c5ccc(OC(F)(F)F)cc5)CC4)CC3)cc2)Cn2cc([N+](=O)[O-])nc2O1", "melting point": "279 to 281"},
      {"smiles": "CNC(=NC#N)Nc1ccc(C2=NNC(=O)CC2C)cc1", "note": "(centres undefined)", "melting point": 235},
      {"smiles": "CC(=O)c1cc2c(s1)C(=O)c1c(C(C)=O)csc1C2=O", "melting point": "207 to 208"},
      {"smiles": "CCCCCCC(=O)C[C@H](O)C(=O)O", "melting point": "69 to 70"},
      {"smiles": "Cc1nccn1-c1cccc(C2=Nc3ccc(-c4ccc(F)cc4)cc3NC(=O)C2)c1", "melting point": 227},
      {"smiles": "Nc1ccc2c(c1)CC(N)CC2", "note": "(single isomer, unassigned; (+))", "melting point": "33 to 34"},
      {"smiles": "COc1cccc(Cc2ccccc2)c1C(=O)O", "melting point": "159 to 161"},
      {"smiles": "CCOC(=O)c1nc(S)n(-c2ccccc2)c1C(=O)OCC", "melting point": "145 to 146"},
      {"smiles": "CC(C)(C)OC(=O)NNC(=O)c1cc(=O)c(OCc2ccccc2)c[nH]1", "melting point": "160 to 165"},
      {"smiles": "COc1ccc(C)c2c1C(C=O)C1CCCCC21", "note": "(centres undefined)", "melting point": "92 to 93"},
      {"smiles": "O=C(O)c1cccc(S(=O)(=O)Oc2ccc(-c3ccc(-c4c(Cc5ccccc5)oc5ccccc45)cc3)cc2)c1", "melting point": "169 to 171"},
      {"smiles": "CNC1(c2ccccc2)CCN(C(c2ccccc2)(c2ccccc2)c2ccccc2)CC1", "melting point": 125},
      {"smiles": "Cc1ccc(NC(=O)N(C)Cc2cccc3c2CN(C2CCC(=O)NC2=O)C3=O)cc1Cl", "note": "(centres undefined)", "melting point": "248 to 250"},
      {"smiles": "Cc1ccccc1-c1nc2ccc(O)cc2o1", "melting point": "134 to 138"},
      {"smiles": "C#CC(C)(O)C1CCC2C3CC=C4CC(F)CCC4(C)C3CCC21C", "note": "(centres undefined)", "melting point": "213 to 214"},
      {"smiles": "CCCc1nn(C)c2c(=O)[nH]c(Cc3ccc(NC=O)cc3)nc12", "melting point": "260 to 261"},
      {"smiles": "Cc1c(C#N)cnc(N)c1C#N", "melting point": "222 to 223"},
      {"smiles": "Cc1ccc(CC2CCN(C(=O)C(=O)Nc3ccc4[nH]c(=O)oc4c3)CC2)cc1", "melting point": "133 to 135"},
      {"smiles": "CC1OC(=O)c2c(O)cccc21", "note": "(centres undefined)", "melting point": "107 to 108"},
      {"smiles": "CC(=O)OC(c1nc2c(C(F)(F)F)cccc2c(O)c1C(=O)Nc1nccs1)C(C)C", "note": "(centres undefined)", "melting point": 242},
      {"smiles": "CC1(C)CCC(C)(C)c2c1ccc(C=Nc1ccc(C(N)=O)cc1)c2N", "melting point": "247 to 249"},
      {"smiles": "CNC(=O)c1cc(Oc2ccc(N)c(F)c2)ccn1", "melting point": "140 to 141"},
      {"smiles": "CCOC(=O)C=CN1C(C)(C)CC(OC(=O)CCl)CC1(C)C", "melting point": "80 to 82"},
      {"smiles": "O=Cc1ccc(O)c2ccsc12", "melting point": 204},
      {"smiles": "CCCCCCOc1ccc(CBr)c2c(OCCCCCC)ccc(CBr)c12", "melting point": "105 to 107"},
      {"smiles": "Nc1c2c(nc3cnccc13)CCCC2=O", "melting point": "237 to 242"},
      {"smiles": "O=C1CCCc2[nH]c(=O)ccc21", "melting point": "302 to 303"},
      {"smiles": "Cc1cc([N+](=O)[O-])c(C(=O)O)cc1F", "melting point": "163 to 165"},
      {"smiles": "NC(=O)c1c(-c2ccccc2)csc1O", "melting point": "108 to 110"},
      {"smiles": "COc1ccc(OCC(=O)CS(=O)(=O)C(c2ccc(Cl)cc2)c2ccc(Cl)cc2)cc1", "melting point": "116 to 117"},
      {"smiles": "Cc1cc(Br)cnc1NCCCNC1=NS(=O)N=C1NCc1ccncn1", "note": "(centres undefined)", "melting point": "171 to 172"},
      {"smiles": "CS(=O)(=O)Nc1cc2occ(N(C=O)CC(=O)O)c(=O)c2cc1Oc1ccccc1", "melting point": "98 to 100"},
      {"smiles": "Nc1cccc2c1ccn2-c1ccnc(N[C@H]2CC[C@H](O)CC2)n1", "melting point": "219 to 220"},
      {"smiles": "c1csc(-c2ccc3nncn3n2)c1", "melting point": "155 to 159"},
      {"smiles": "Nc1nc2c(Cc3cccnc3)c[nH]c2c(=O)[nH]1", "melting point": "> 300"},
      {"smiles": "O=S(=O)(Nc1ccc2c(OCc3ccc(-c4ccccc4)cc3Cl)cccc2c1)C(F)(F)F", "melting point": "131 to 134"},
      {"smiles": "NP(N)(=O)NC(=O)CCc1ccccc1", "melting point": "> 300"},
      {"smiles": "NC(=NO)c1c(F)cccc1Cl", "melting point": "115 to 120"},
      {"smiles": "C=Cc1ccc(CSC2C(=O)N(c3c(Cl)cc(Cl)cc3Cl)N=C2Nc2cc(NC(C)=O)ccc2Cl)cc1", "note": "(centres undefined)", "melting point": 240},
      {"smiles": "CC[C@H](C1CC1)n1cc(Cl)nc(N2CCc3cc(OC)c(F)c(Cl)c32)c1=O", "melting point": "128 to 130"},
      {"smiles": "Cc1ccc(Sc2cc(C(=O)O)ccc2C(=O)O)cc1", "melting point": 326},
      {"smiles": "O=c1c(-c2cccc(F)c2)coc2c(O)c(O)ccc12", "melting point": 230},
      {"smiles": "COC(=O)[C@]1(F)[C@@H]2[C@H]1C(=O)C[C@H]2O[Si](C)(C)C(C)(C)C", "melting point": "70 to 71"},
      {"smiles": "O=C1N=C2C(=O)SC=C2N1", "melting point": "177 to 180"},
      {"smiles": "CC(=O)OCC(=O)c1ccc(C)cc1", "melting point": 85},
      {"smiles": "CCSc1nc(NC(C)=O)ccc1F", "melting point": "110 to 114"},
      {"smiles": "CSC(=O)c1c(O)ccc2ccccc12", "melting point": "111 to 112"},
      {"smiles": "O=c1c2ccccc2[nH]c2c(OCCCCN(CCCl)CCCl)cccc12", "melting point": 119},
      {"smiles": "COc1ccc(Cc2nccc3ccccc23)cc1OC", "melting point": "146 to 147"},
      {"smiles": "Cc1cc(-c2cccc(NC(=O)C3CC3)c2)n2ncc(C(=O)c3cccs3)c2n1", "melting point": "184 to 186"},
      {"smiles": "Cc1oc(-c2ccco2)nc1COc1ccc(Cn2cc(CCC(=O)O)c(-c3ccc(C(F)(F)F)cc3)n2)cc1", "melting point": "92 to 93"},
      {"smiles": "Cc1ccc(CCCO)c(NCc2ccc3nc(NCCCN4CCOCC4)n(Cc4cc(Br)ccc4O)c3c2)c1", "melting point": 134},
      {"smiles": "O=C(Cc1ccc(F)cc1)c1ccccc1", "melting point": "109 to 110"},
      {"smiles": "Cc1ccc(S(=O)(=O)Nc2nc(-c3cccc(C#N)c3)cs2)cc1", "melting point": "> 250"},
      {"smiles": "CN(CC(N)=O)c1nccc(-c2ccc(C(=O)NCCc3ccc4[nH]cc(C(=N)N)c4c3)cc2)n1", "melting point": "96 to 98"},
      {"smiles": "CC(C)(C)OC(=O)N1Cc2c(-c3noc(C4CC4)n3)ncn2-c2ccccc21", "melting point": 204},
      {"smiles": "COc1ccc(COc2nn(Cc3ccccc3)cc2CO)cc1OCc1nc(-c2ccco2)oc1C", "melting point": "108 to 109"},
      {"smiles": "O=C(O)CNc1ccc(Cl)cc1C(=O)O", "melting point": "182 to 183"},
      {"smiles": "CCC(=O)N1CCSc2cccc(Cl)c2C1", "melting point": "55 to 57"},
      {"smiles": "CCc1nn(CC(=N)NO)c(CC)c1Oc1cc(Cl)cc(Cl)c1", "melting point": "128 to 130"},
      {"smiles": "CCCCCCCCCCCCCCCCCCSC(C)(C)C(=O)CC(=O)Nc1ccccc1OC", "melting point": "59 to 61"},
      {"smiles": "COc1ccc(CC(=O)NC(C)(C)C(O)c2ccccc2)cc1OC", "note": "(centres undefined)", "melting point": "123 to 124"},
      {"smiles": "COC1=C(Cc2ccc(Cl)cc2)C(=O)CC(C)(C)C1", "melting point": "62 to 63"},
      {"smiles": "CC(C)CCCCCCCCCCCC(=O)Nc1ccc(O)c(O)c1", "melting point": "85 to 86"}
    ]}
  ]
}
